Test results as given in patent publication US20260365682A1, “MODULATORS OF TNF-ALPHA ACTIVITY” (Forward Therapeutics, Inc., priority 2022, published 2026).
Read-outs that look alike come from different tables or passages of the source.

Target: T1, TNF-α (Homo sapiens, UniProt P01375)
T1 construct: purchased R&D 210-TA-020/CF
Test: TNF-α Induced HEK Blue Cellular Assay (secreted alkaline phosphatase expression, QUANTI-Blue)
Assay type: cell-based
Conditions: HEK Blue TNFα reporter cells, TNF-α 100 μg/ml, 24 hrs at 37° C., inhibition of secreted alkaline phosphatase
Method in brief: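 Compound was serially diluted from […] to 0.5 nM final, then incubated with 10,000 HEK Blue TNFα reporter cells per well and […] TNF-α for 24 h at 37° C. SEAP output was read by QUANTI-Blue absorbance at 620 nm. Inhibition was background-corrected against DMSO controls with and without stimulation, and IC50 was fitted with a 4-parameter logistic equation.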

T1 sequence (P01375 77-233 limits assumed): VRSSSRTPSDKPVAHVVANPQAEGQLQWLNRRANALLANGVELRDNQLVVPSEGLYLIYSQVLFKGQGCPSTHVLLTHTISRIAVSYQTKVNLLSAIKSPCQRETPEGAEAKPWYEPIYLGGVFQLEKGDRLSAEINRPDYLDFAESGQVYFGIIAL

With `[2H]C([2H])([2H])N1C(=O)c2cccc(OC(F)F)c2[C@H]2C[C@@H]1c1nc3ccc(C#CCCC#N)cc3n12` [Example 87, 5-((7R,14R)-1-(difluoromethoxy)-6-(methyl-d3)-5-oxo-5,6,7,14-tetrahydro-7,14-methanobenzo[f]benzo[4,5]imidazo[1,2-a][1,4]diazocin-11-yl)pent-4-ynenitrile] the IC50 (read-out: IC50 value) was less than 100 nM.

`[2H]C([2H])([2H])N1C(=O)c2cccc(OC(F)F)c2[C@H]2C[C@@H]1c1nc3ccc(C#CCCC)cc3n12` [Example 88, (7R,14R)-1-(difluoromethoxy)-6-(methyl-d3)-11-(pent-1-yn-1-yl)-6,7-dihydro-7,14-methanobenzo[f]benzo[4,5]imidazo[1,2-a][1,4]diazocin-5(14H)-one] was tested, and the IC50 (IC50 value) was less than 100 nM.

Compound `[2H]C([2H])([2H])N1C(=O)c2cccc(OC(F)F)c2[C@H]2C[C@@H]1c1nc3ccc(C#CC(=O)NCC(F)(F)F)cc3n12` [Example 89, 3-((7R,14R)-1-(difluoromethoxy)-6-(methyl-d3)-5-oxo-5,6,7,14-tetrahydro-7,14-methanobenzo[f]benzo[4,5]imidazo[1,2-a][1,4]diazocin-11-yl)-N-(2,2,2-trifluoroethyl)propiolamide] has an IC50 (IC50 value) of 100 to 1000 nM.

For `[2H]C([2H])([2H])N1C(=O)c2cccc(OC(F)F)c2[C@H]2C[C@@H]1c1nc3ccc(C#CC[Si](C)(C)C)cc3n12` [Example 90, (7R,14R)-1-(difluoromethoxy)-6-(methyl-d3)-11-(3-(trimethylsilyl)prop-1-yn-1-yl)-6,7-dihydro-7,14-methanobenzo[f]benzo[4,5]imidazo[1,2-a][1,4]diazocin-5(14H)-one], the IC50 (read-out: IC50 value) was less than 100 nM.

In the case of `[2H]C([2H])([2H])N1C(=O)c2cccc(OC(F)F)c2[C@H]2C[C@@H]1c1nc3ccc(C#CCCCC)cc3n12` [Example 91, (7R,14R)-1-(difluoromethoxy)-11-(hex-1-yn-1-yl)-6-(methyl-d3)-6,7-dihydro-7,14-methanobenzo[f]benzo[4,5]imidazo[1,2-a][1,4]diazocin-5(14H)-one], the IC50 (read-out: IC50 value) is reported as less than 100 nM.

In the case of `[2H]C([2H])([2H])N1C(=O)c2cccc(OC(F)F)c2[C@H]2C[C@@H]1c1nc3ccc(C#CCCCCO)cc3n12` [Example 92, (7R,14R)-1-(difluoromethoxy)-11-(6-hydroxyhex-1-yn-1-yl)-6-(methyl-d3)-6,7-dihydro-7,14-methanobenzo[f]benzo[4,5]imidazo[1,2-a][1,4]diazocin-5(14H)-one], the IC50 (read-out: IC50 value) is reported as less than 100 nM.

In the case of `[2H]C([2H])([2H])N1C(=O)c2cccc(OC(F)F)c2[C@H]2C[C@@H]1c1nc3ccc(C#CCCC(C)(C)O)cc3n12` [Example 93, (7R,14R)-1-(difluoromethoxy)-11-(5-hydroxy-5-methylhex-1-yn-1-yl)-6-(methyl-d3)-6,7-dihydro-7,14-methanobenzo[f]benzo[4,5]imidazo[1,2-a][1,4]diazocin-5(14H)-one], the IC50 (read-out: IC50 value) is reported as less than 100 nM.

`[2H]C([2H])([2H])N1C(=O)c2cccc(OC(F)F)c2[C@H]2C[C@@H]1c1nc3ccc(C#CCCC(C)C)cc3n12` [Example 94, (7R,14R)-1-(difluoromethoxy)-6-(methyl-d3)-11-(5-methylhex-1-yn-1-yl)-6,7-dihydro-7,14-methanobenzo[f]benzo[4,5]imidazo[1,2-a][1,4]diazocin-5(14H)-one] gave an IC50 (read-out: IC50 value) of less than 100 nM.

`[2H]C([2H])([2H])N1C(=O)c2cccc(OC(F)F)c2[C@H]2C[C@@H]1c1nc3ccc(C#CC(=O)NC(C)C)cc3n12` [Example 95, 3-((7R,14R)-1-(difluoromethoxy)-6-(methyl-d3)-5-oxo-5,6,7,14-tetrahydro-7,14-methanobenzo[f]benzo[4,5]imidazo[1,2-a][1,4]diazocin-11-yl)-N-isopropylpropiolamide] was tested, and the IC50 (read-out: IC50 value) was less than 100 nM.

For `[2H]C([2H])([2H])N1C(=O)c2cccc(OC(F)F)c2[C@H]2C[C@@H]1c1nc3ccc(C#CC4(C)COC4)cc3n12` [Example 96, (7R,14R)-1-(difluoromethoxy)-6-(methyl-d3)-11-((3-methyloxetan-3-yl)ethynyl)-6,7-dihydro-7,14-methanobenzo[f]benzo[4,5]imidazo[1,2-a][1,4]diazocin-5(14H)-one], the IC50 (read-out: IC50 value) was less than 100 nM.

Compound `[2H]C([2H])([2H])N1C(=O)c2cccc(OC(F)F)c2[C@H]2C[C@@H]1c1nc3ccc(C#CC4(O)CCOCC4)cc3n12` [Example 97, (7R,14R)-1-(difluoromethoxy)-11-((4-hydroxytetrahydro-2H-pyran-4-yl)ethynyl)-6-(methyl-d3)-6,7-dihydro-7,14-methanobenzo[f]benzo[4,5]imidazo[1,2-a][1,4]diazocin-5(14H)-one] has an IC50 (read-out: IC50 value) of less than 100 nM.

In the case of `[2H]C([2H])([2H])N1C(=O)c2cccc(OC(F)F)c2[C@H]2C[C@@H]1c1nc3ccc(C#CCCCC(=O)O)cc3n12` [Example 98, 6-((7R,14R)-1-(difluoromethoxy)-6-(methyl-d3)-5-oxo-5,6,7,14-tetrahydro-7,14-methanobenzo[f]benzo[4,5]imidazo[1,2-a][1,4]diazocin-11-yl)hex-5-ynoic Acid], the IC50 (read-out: IC50 value) is reported as less than 100 nM.

Work on `[2H]C([2H])([2H])N1C(=O)c2cccc(OC(F)F)c2[C@H]2C[C@@H]1c1nc3ccc(CCCCO)cc3n12` [Example 99, (7R,14R)-1-(difluoromethoxy)-11-(4-hydroxybutyl)-6-(methyl-d3)-6,7-dihydro-7,14-methanobenzo[f]benzo[4,5]imidazo[1,2-a][1,4]diazocin-5(14H)-one] yielded an IC50 (read-out: IC50 value) of less than 100 nM.

For `[2H]C([2H])([2H])N1C(=O)c2cccc(OC(F)F)c2[C@H]2C[C@@H]1c1nc3ccc(C#Cc4cnc(P(C)(C)=O)nc4)cc3n12` [Example 100, (7R,14R)-1-(difluoromethoxy)-11-((2-(dimethylphosphoryl)pyrimidin-5-yl)ethynyl)-6-(methyl-d3)-6,7-dihydro-7,14-methanobenzo[f]benzo[4,5]imidazo[1,2-a][1,4]diazocin-5(14H)-one], the IC50 (read-out: IC50 value) was less than 100 nM.

In the case of `[2H]C([2H])([2H])N1C(=O)c2cccc(OC(F)F)c2[C@H]2C[C@@H]1c1nc3ccc(C#CCCN4CCOCC4)cc3n12` [Example 101, (7R,14R)-1-(difluoromethoxy)-6-(methyl-d3)-11-(4-morpholinobut-1-yn-1-yl)-6,7-dihydro-7,14-methanobenzo[f]benzo[4,5]imidazo[1,2-a][1,4]diazocin-5(14H)-one], the IC50 (read-out: IC50 value) is reported as less than 100 nM.

`[2H]C([2H])([2H])N1C(=O)c2cccc(OC(F)F)c2[C@H]2C[C@@H]1c1nc3ccc(C#CC4CCOC4)cc3n12` (stereo partly drawn) [Example 102, (7R,14R)-1-(difluoromethoxy)-6-(methyl-d3)-11-((tetrahydrofuran-3-yl)ethynyl)-6,7-dihydro-7,14-methanobenzo[f]benzo[4,5]imidazo[1,2-a][1,4]diazocin-5(14H)-one] showed an IC50 (read-out: IC50 value) of less than 100 nM.

Compound `[2H]C([2H])([2H])N1C(=O)c2cccc(OC(F)F)c2[C@H]2C[C@@H]1c1nc3ccc(C#CCCOC(F)F)cc3n12` [Example 103, (7R,14R)-1-(difluoromethoxy)-11-(4-(difluoromethoxy)but-1-yn-1-yl)-6-(methyl-d3)-6,7-dihydro-7,14-methanobenzo[f]benzo[4,5]imidazo[1,2-a][1,4]diazocin-5(14H)-one] has an IC50 (read-out: IC50 value) of less than 100 nM.

`[2H]C([2H])([2H])N1C(=O)c2cccc(OC(F)F)c2[C@H]2C[C@@H]1c1nc3ccc(C#CCCC(=O)O)cc3n12` [Example 104, 5-((7R,14R)-1-(difluoromethoxy)-6-(methyl-d3)-5-oxo-5,6,7,14-tetrahydro-7,14-methanobenzo[f]benzo[4,5]imidazo[1,2-a][1,4]diazocin-11-yl)pent-4-ynoic Acid] gave an IC50 (read-out: IC50 value) of 10000 to 30000 nM.

`[2H]C([2H])([2H])N1C(=O)c2cccc(OC(F)F)c2[C@H]2C[C@@H]1c1nc3ccc(C#CCC4CC4)cc3n12` [Example 105, (7R,14R)-11-(3-cyclopropylprop-1-yn-1-yl)-1-(difluoromethoxy)-6-(methyl-d3)-6,7-dihydro-7,14-methanobenzo[f]benzo[4,5]imidazo[1,2-a][1,4]diazocin-5(14H)-one] gave an IC50 (read-out: IC50 value) of less than 100 nM.

Work on `[2H]C([2H])([2H])N1C(=O)c2cccc(OC(F)F)c2[C@H]2C[C@@H]1c1nc3ccc(C#Cc4ccc(P(C)(C)=O)cc4)cc3n12` [Example 106, (7R,14R)-1-(difluoromethoxy)-11-((4-(dimethylphosphoryl)phenyl)ethynyl)-6-(methyl-d3)-6,7-dihydro-7,14-methanobenzo[f]benzo[4,5]imidazo[1,2-a][1,4]diazocin-5(14H)-one] yielded an IC50 (read-out: IC50 value) of less than 100 nM.

In the case of `[2H]C([2H])([2H])N1C(=O)c2cccc(OC(F)F)c2[C@H]2C[C@@H]1c1nc3ccc(C#Cc4ccc(P(C)(C)=O)s4)cc3n12` [Example 107, (7R,14R)-1-(difluoromethoxy)-11-((5-(dimethylphosphoryl)thiophen-2-yl)ethynyl)-6-(methyl-d3)-6,7-dihydro-7,14-methanobenzo[f]benzo[4,5]imidazo[1,2-a][1,4]diazocin-5(14H)-one], the IC50 (read-out: IC50 value) is reported as less than 100 nM.

For `[2H]C([2H])([2H])N1C(=O)c2cccc(OC(F)F)c2[C@H]2C[C@@H]1c1nc3ccc(C#CCC(F)(F)F)cc3n12` [Example 108, (7R,14R)-1-(difluoromethoxy)-6-(methyl-d3)-11-(4,4,4-trifluorobut-1-yn-1-yl)-6,7-dihydro-7,14-methanobenzo[f]benzo[4,5]imidazo[1,2-a][1,4]diazocin-5(14H)-one], the IC50 (read-out: IC50 value) was less than 100 nM.

`[2H]C([2H])([2H])N1C(=O)c2cccc(OC(F)F)c2[C@H]2C[C@@H]1c1nc3c(F)cc(C#CC)cc3n12` [Example 109, (7R,14R)-1-(difluoromethoxy)-9-fluoro-6-(methyl-d3)-11-(prop-1-yn-1-yl)-6,7-dihydro-7,14-methanobenzo[f]benzo[4,5]imidazo[1,2-a][1,4]diazocin-5(14H)-one] showed an IC50 (read-out: IC50 value) of 100 to 1000 nM.

`[2H]C([2H])([2H])N1C(=O)c2cccc(OC(F)F)c2[C@H]2C[C@@H]1c1nc3ccc(C#CC4CC(O)C4)cc3n12` (stereo partly drawn) [Example 110, (7R,14R)-1-(difluoromethoxy)-11-((3-hydroxycyclobutyl)ethynyl)-6-(methyl-d3)-6,7-dihydro-7,14-methanobenzo[f]benzo[4,5]imidazo[1,2-a][1,4]diazocin-5(14H)-one] was tested, and the IC50 (read-out: IC50 value) was less than 100 nM.
